Data taken from ChEMBL document CHEMBL5058564, “EUbOPEN Chemogenomics Library 2 (Incucyte)” (2022).

How the values were obtained:
Assay type in all cases: toxicity, cell-based
[1] = system: HEK-293T; assay: Incucyte cell viability with HEK293T; conditions: human, 10 µM, compound concentration 10 uM
[2] = system: Fibroblast; assay: Incucyte cell viability with human fibroblast; conditions: 10 µM, compound concentration 10 uM
[3] = system: U2OS; assay: Incucyte cell viability with U2OS; conditions: human, 10 µM, compound concentration 10 uM
[4] = 6 h, replicate number 1, timepoint 6 hours
[5] = 6 h, replicate number 2, timepoint 6 hours
[6] = 12 h, replicate number 1, timepoint 12 hours
[7] = 12 h, replicate number 2, timepoint 12 hours
[8] = 18 h, replicate number 1, timepoint 18 hours
[9] = 18 h, replicate number 2, timepoint 18 hours
[10] = 24 h, replicate number 1, timepoint 24 hours
[11] = 24 h, replicate number 2, timepoint 24 hours
[12] = 0 h, replicate number 1, timepoint 0 hours
[13] = 0 h, replicate number 2, timepoint 0 hours
Also: unitless GR value; below 1 slowed growth and below 0 cell loss.

SMILES | Growth Rate [1, 4] | Growth Rate [1, 5] | Growth Rate [1, 6] | Growth Rate [1, 7] | Growth Rate [1, 8] | Growth Rate [1, 9] | Growth Rate [1, 10] | Growth Rate [1, 11] | Growth Rate [2, 13] | Growth Rate [2, 7] | Growth Rate [2, 9] | Growth Rate [3, 4] | Growth Rate [3, 7] | Growth Rate [2, 4] | Growth Rate [2, 6] | Growth Rate [2, 8] | Growth Rate [2, 10] | Growth Rate [3, 13] | Growth Rate [3, 9] | Growth Rate [3, 11] | other results
OCc1cc(C(O)CNCCCCCCOCCCCc2ccccc2)ccc1O (stereo not drawn) [SALMETEROL] | 0.2 | 0.28 | 0.7 | 0.57 | 0.75 | 0.72 | 0.7 | 0.71 | 0.63 | 0.59 | 0.72 | 0.56 | 0.98 | – | – | – | – | – | – | – | Growth Rate [2, 12]: 0.1; Growth Rate [3, 6]: 0.56; Growth Rate [3, 8]: 0.81; Growth Rate [3, 10]: 0.95
CC[C@H](NC(=O)c1c(C)c(-c2ccccc2)nc2ccccc12)c1ccccc1 [SB-222200] | 0.76 | 0.41 | 0.77 | 0.72 | 0.97 | – | 0.88 | – | – | 0.48 | 0.91 | – | 0.93 | 0.45 | 0.45 | 0.64 | 0.67 | -1 | 0.84 | 0.93 | Growth Rate [2, 5]: -0.34; Growth Rate [2, 11]: 0.98
CC(C)N(CCCCOCC(=O)NS(C)(=O)=O)c1cnc(-c2ccccc2)c(-c2ccccc2)n1 [SELEXIPAG] | – | 0.76 | 0.89 | 0.73 | – | – | – | – | 0.34 | – | – | 0.41 | 0.8 | 0.5 | 0.75 | 0.76 | 0.48 | -1 | 0.98 | – | Growth Rate [1, 12]: 0.99; Growth Rate [1, 13]: 0.73; Growth Rate [2, 12]: 0.56; Growth Rate [3, 12]: 0.21; Growth Rate [3, 8]: 0.99; Growth Rate [3, 10]: 1
CSCC[C@H](NC(=O)[C@H](CC(C)C)NC(=O)CNC(=O)[C@H](Cc1ccccc1)N(C)C(=O)[C@H](Cc1ccccc1)NC(=O)[C@H](CC(=O)O)NC(=O)CCC(=O)O)C(N)=O [SENKTIDE] | 0.83 | – | – | 0.93 | 0.92 | – | 0.84 | 0.88 | 0.41 | 0.87 | – | – | 0.98 | – | 0.98 | – | 0.9 | – | 0.91 | – | Growth Rate [1, 12]: 0.75; Growth Rate [1, 13]: -0.03; Growth Rate [2, 12]: 0.34; Growth Rate [2, 5]: 0.25; Growth Rate [3, 6]: 0.94
CC1=C(C)C(=O)C(C(CCCCCC(=O)O)c2ccccc2)=C(C)C1=O (stereo not drawn) [SERATRODAST] | – | 0.54 | – | 0.63 | – | – | – | – | – | – | – | – | – | 0.67 | – | – | – | -1 | – | 0.99 | Growth Rate [2, 12]: 1; Growth Rate [3, 12]: -0.5
Cl.NCCc1c[nH]c2ccc(O)cc12 [SEROTONIN HYDROCHLORIDE] | – | – | – | – | – | – | – | – | 0.19 | 1 | – | 0.46 | 0.97 | – | – | – | – | 0.12 | – | – | Growth Rate [1, 12]: 0.58; Growth Rate [1, 13]: 0.43; Growth Rate [3, 12]: 0.29; Growth Rate [3, 5]: 0.79; Growth Rate [3, 6]: 0.38; Growth Rate [3, 8]: 0.67; Growth Rate [3, 10]: 0.62
Cc1c(C(=O)Nc2ccc(N3C[C@@H](C)O[C@@H](C)C3)nc2)cccc1-c1ccc(OC(F)(F)F)cc1 [SONIDEGIB] | 0.25 | -0.63 | -0.06 | -0.54 | 0 | -0.39 | 0.05 | -0.3 | 0.63 | – | – | – | – | 0.45 | 0.42 | 0.13 | 0.36 | -1 | – | 0.97 | Growth Rate [1, 13]: -0.95; Growth Rate [2, 12]: 0.97; Growth Rate [3, 12]: -0.44
CCCCCCCCCCCCC/C=C/[C@@H](O)[C@@H](N)COP(=O)([O-])OCC[N+](C)(C)C [SPHINGOSYLPHOSPHORYLCHLOLINE] | -0.01 | -0.35 | 0.28 | -0.08 | 0.46 | 0.29 | 0.43 | 0.54 | – | -0.25 | 0.1 | 0.97 | 0.91 | -0.36 | -0.22 | -0.17 | 0.17 | – | 0.8 | 0.88 | Growth Rate [2, 5]: -0.69; Growth Rate [2, 11]: 0.07; Growth Rate [3, 10]: 0.9
CS(=O)(=O)N1CCCC(NC(=O)[C@H](CCC2CCCCC2)NC(=O)c2ccc(CNc3ncnc4c3nnn4-c3ccccc3)cc2)C1 (stereo partly drawn) [SR-301] | -0.5 | – | -0.33 | – | -0.23 | – | -0.11 | – | -0.06 | – | – | 0.78 | – | -0.33 | -0.47 | -0.48 | -0.39 | – | 0.89 | – | Growth Rate [1, 13]: 0.12; Growth Rate [3, 12]: 0.63; Growth Rate [3, 6]: 0.94; Growth Rate [3, 8]: 0.6; Growth Rate [3, 10]: 0.6
CN[C@@H]1C[C@H]2O[C@@](C)([C@@H]1OC)n1c3ccccc3c3c4c(c5c6ccccc6n2c5c31)C(=O)NC4 [STAUROSPORINE] | – | – | – | – | 0.33 | 0.42 | 0.11 | 0.09 | -0.7 | – | 0.61 | – | – | – | 0.41 | 0 | -0.13 | – | 0.69 | 0.49 | Growth Rate [1, 12]: -0.75; Growth Rate [1, 13]: -0.46; Growth Rate [2, 12]: 0.05; Growth Rate [2, 11]: 0.35; Growth Rate [3, 8]: 0.79; Growth Rate [3, 10]: 0.65
O=S(=O)(c1ccccc1)N(CC(F)(F)F)c1ccc(C(O)(C(F)(F)F)C(F)(F)F)cc1 [T091317] | 0.85 | 0.77 | 0.42 | 0.75 | 0.24 | 0.56 | 0.37 | 0.53 | – | 0.22 | 0.05 | 0.74 | 0.83 | 0.72 | -0.09 | -0.3 | -0.32 | -0.29 | 0.76 | 0.81 | Growth Rate [1, 12]: 0.85; Growth Rate [2, 11]: 0.05; Growth Rate [3, 12]: 0.14; Growth Rate [3, 8]: 0.98
CCC(=O)NC[C@@H]1C[C@H]1c1cccc2c1CCO2 [TASIMELTEON] | 0.74 | – | – | – | 0.92 | 0.94 | 0.79 | 0.99 | 0.97 | 0.49 | 0.76 | 0.85 | 0.81 | 0.35 | 0.48 | 0.69 | 0.48 | -0.06 | 0.96 | 0.96 | Growth Rate [1, 12]: 0.74; Growth Rate [1, 13]: 0.1; Growth Rate [2, 5]: 0.26; Growth Rate [2, 11]: 0.82; Growth Rate [3, 12]: -0.37; Growth Rate [3, 5]: 0.51; Growth Rate [3, 6]: 0.97
O=C(N[C@@H]1CC[C@@H](c2cccc(F)c2F)CN(CC(F)(F)F)C1=O)N1CCC(n2c(=O)[nH]c3ncccc32)CC1 [TELCAGEPANT] | 0.32 | 0.77 | 0.66 | 0.94 | 0.54 | 0.98 | 0.81 | – | 0.95 | 0.39 | 0.66 | 0.8 | – | 0.18 | 0.01 | 0.11 | 0.22 | -1 | 0.98 | 0.95 | Growth Rate [2, 5]: -0.28; Growth Rate [2, 11]: 0.72; Growth Rate [3, 10]: 0.86
